Here are results for 8 molecules from patent EP4741420A1, “PHARMACEUTICAL COMPOSITION FOR PREVENTING OR TREATING OBESITY COMPRISING GLP ANALOGUE AS ACTIVE INGREDIENT” (priority 2023, dated 2025).

Read-outs that look alike come from different tables or passages of the source. Numbered stars: 1 amine (or outer) side, 2 acyl side, 3 side chain; on linkers, the order of the positions; unused ones are H or OH. Side chains are listed from the residue outwards. Ends that are not written are not given here. Peptide text beside a SMILES is read from it. * marks the point of attachment. mPEG 3.4 kDa = 3.4 kDa maleimidated PEG on Cys; C18 diacid = O=C(O)CCCCCCCCCCCCCCCCC(=O)*; γGlu = O=C(O)[C@H](CCC(=O)[*:2])N[*:1]; Palmitoyl = CCCCCCCCCCCCCCCC(=O)*

The term AUC(0-t) denotes exposure summed from dosing to a finite time, without extrapolation to infinity. One may read the Cmax as the maximum level reached in the sampled fluid or tissue. As a reminder, the Tmax is the time at which the peak concentration occurs. As usually defined, the EC50 is the concentration that produces a half-maximal response. Read a low EC50 as a more potent agent.

Data set [1] can be described thus: Mouse PK after single subcutaneous administration, LC-MS/MS of plasma. Type of data set: in vivo, mice. The conditions noted are these: for AUC(0-t) / Cmax / half-life / Tmax: mouse, in vivo, sc; for Cmax: read-out: Cmax. On the procedure:
Each of the experimental groups and the control was subcutaneously administered once to the dorsal area of a total of 12 mice using a 1 mL syringe equipped with a 26-gauge needle at a dose of 0.2 mg/5 mL/kg. After drug administration, approximately 0.04 to 0.05 mL of blood was collected per individual at the time scheduled for the orbital vein (4 mice were alternately sampled), and the blood collection times were 1, 2, 4, 8, 24 ,32 ,48, 56, 72, 96, and 120 hours. All plasma samples were analyzed using a self-developed LC-MS/MS assay. Pharmacokinetic analysis of blood drugs was performed using non-compartmental analysis, and analysis of pharmacokinetic parameters was performed using Phoenix WinNolin 64 (Version. 8.3.5 340).

Data set [2] deals with T1, GLP-2 (Homo sapiens, UniProt O95838).
T1 sequence (O95838 1-553): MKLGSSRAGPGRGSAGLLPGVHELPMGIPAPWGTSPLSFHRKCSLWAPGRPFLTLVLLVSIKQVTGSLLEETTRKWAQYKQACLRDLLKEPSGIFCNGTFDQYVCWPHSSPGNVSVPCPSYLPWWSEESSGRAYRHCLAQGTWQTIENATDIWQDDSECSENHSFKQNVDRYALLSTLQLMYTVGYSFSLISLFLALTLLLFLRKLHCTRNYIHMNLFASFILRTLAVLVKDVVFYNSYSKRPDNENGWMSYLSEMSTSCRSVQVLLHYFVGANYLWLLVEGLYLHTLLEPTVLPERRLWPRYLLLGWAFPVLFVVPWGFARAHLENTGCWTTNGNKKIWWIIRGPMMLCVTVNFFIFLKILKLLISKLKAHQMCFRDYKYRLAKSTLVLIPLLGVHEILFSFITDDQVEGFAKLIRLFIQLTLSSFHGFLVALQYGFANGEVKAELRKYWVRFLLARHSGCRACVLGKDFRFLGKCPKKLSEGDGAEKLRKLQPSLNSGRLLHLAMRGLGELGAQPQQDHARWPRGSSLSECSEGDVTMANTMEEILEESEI
Briefly: GLP-2 activity, cell-based cAMP assay (same method as Example 2). (cAMP levels reflect the balance of adenylyl cyclase and phosphodiesterase activity.)

Data set [3] addresses GLP-1R (on GLP-1R/CHO cells, DiscoverX 95-0062C2) (UniProt P43220 24-463). Briefly: cell-based or functional assay.
Where [4] appears, read: 0.2 mg/kg, C57BL/6N male mice, single subcutaneous dose 0.2 mg/5 mL/kg, plasma.
The mark [5] stands for this setting: 0.2 mg/kg, C57BL/6N male mice, single subcutaneous dose 0.2 mg/5 mL/kg, plasma, read-out: T1/2 (converted).
Where [6] appears, read: 0.2 mg/kg, C57BL/6N male mice, single subcutaneous dose 0.2 mg/5 mL/kg, plasma, read-out: Tmax.

Chain of GLP-1R (on GLP-1R/CHO cells, DiscoverX 95-0062C2) (P43220 24-463 limits assumed): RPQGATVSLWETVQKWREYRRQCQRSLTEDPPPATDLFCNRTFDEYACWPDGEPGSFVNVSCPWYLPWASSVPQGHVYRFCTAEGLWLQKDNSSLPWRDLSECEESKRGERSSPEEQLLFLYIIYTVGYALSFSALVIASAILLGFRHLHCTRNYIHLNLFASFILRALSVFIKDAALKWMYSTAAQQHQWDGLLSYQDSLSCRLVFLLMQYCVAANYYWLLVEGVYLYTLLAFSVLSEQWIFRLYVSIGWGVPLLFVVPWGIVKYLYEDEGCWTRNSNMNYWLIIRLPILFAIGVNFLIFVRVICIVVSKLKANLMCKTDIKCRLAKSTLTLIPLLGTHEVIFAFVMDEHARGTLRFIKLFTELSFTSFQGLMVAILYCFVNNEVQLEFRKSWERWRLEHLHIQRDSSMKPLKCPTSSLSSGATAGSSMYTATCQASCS

As to `CCCCCCCCCCCCCCCC(=O)N[C@@H](CCC(=O)NCCCC[C@H](NC(=O)[C@H](CCCCN)NC(=O)[C@H](CC(=O)O)NC(=O)[C@@H](NC(=O)[C@@H](NC(=O)[C@H](CCCCN)NC(=O)[C@@H](NC(=O)[C@H](CCC(N)=O)NC(=O)[C@@H](NC(=O)[C@H](CC(C)C)NC(=O)[C@H](Cc1c[nH]c2ccccc12)NC(=O)[C@H](CC(N)=O)NC(=O)[C@@H](NC(=O)[C@H](Cc1ccccc1)NC(=O)[C@H](CC(=O)O)NC(=O)[C@H](CCCNC(=N)N)NC(=O)[C@H](C)NC(=O)[C@H](C)NC(=O)[C@H](CC(C)C)NC(=O)[C@H](C)NC(=O)[C@H](CC(=O)O)NC(=O)[C@H](CC(C)C)NC(=O)[C@H](Cc1ccc(O)cc1)NC(=O)[C@@H](NC(=O)[C@H](CO)NC(=O)[C@H](CC(C)C)NC(=O)[C@H](CC(=O)O)NC(=O)[C@H](CO)NC(=O)[C@@H](NC(=O)[C@H](Cc1ccccc1)NC(=O)[C@@H](NC(=O)CNC(=O)[C@H](CCC(=O)O)NC(=O)C(C)(C)NC(=O)[C@@H](N)Cc1c[nH]cn1)[C@@H](C)O)[C@@H](C)O)[C@@H](C)O)[C@@H](C)CC)[C@@H](C)CC)[C@@H](C)O)[C@@H](C)CC)[C@@H](C)O)C(=O)O)C(=O)O` [HU020M3] (HELM PEPTIDE1{H.[Aib].E.G.T.F.T.S.D.L.S.T.Y.L.D.A.L.A.A.R.D.F.I.N.W.L.I.Q.T.K.I.T.D.K.K}|PEPTIDE2{[CCCCCCCCCCCCCCCC(=O)[*:2]].[gGlu]}$PEPTIDE1,PEPTIDE2,35:R3-2:R2$$$V2.0), in data set [1] (setting [4]), the AUC(0-t) was determined as 5.07 µg·h/mL and the Cmax is 0.315 µg/mL. The half-life in data set [1] (setting [5]) is 7 h. Moreover, the Tmax in data set [1] (setting [6]) turned out to be 12 h.
In turn, “HGEGTFTSDLSTYLDALAARDFINWLIQTKITD [HU020]” gave a half-maximal effective concentration (EC50) in data set [2] (Example 5) of 0.65 µM.
Take `CC[C@H](C)[C@H](NC(=O)[C@H](Cc1ccccc1)NC(=O)[C@H](CC(=O)O)NC(=O)[C@H](CCCNC(=N)N)NC(=O)[C@H](C)NC(=O)[C@H](C)NC(=O)[C@H](CC(C)C)NC(=O)[C@H](C)NC(=O)[C@H](CC(=O)O)NC(=O)[C@H](CC(C)C)NC(=O)[C@H](Cc1ccc(O)cc1)NC(=O)[C@@H](NC(=O)[C@H](CO)NC(=O)[C@H](CC(C)C)NC(=O)[C@H](CC(=O)O)NC(=O)[C@H](CO)NC(=O)[C@@H](NC(=O)[C@H](Cc1ccccc1)NC(=O)[C@@H](NC(=O)CNC(=O)[C@H](CCC(=O)O)NC(=O)C(C)(C)NC(=O)[C@@H](N)Cc1c[nH]cn1)[C@@H](C)O)[C@@H](C)O)[C@@H](C)O)C(=O)N[C@@H](CC(N)=O)C(=O)N[C@@H](Cc1c[nH]c2ccccc12)C(=O)N[C@@H](CC(C)C)C(=O)N[C@H](C(=O)N[C@@H](CCC(N)=O)C(=O)N[C@H](C(=O)N[C@@H](CCCCN)C(=O)N[C@H](C(=O)N[C@H](C(=O)N[C@@H](CC(=O)O)C(=O)N[C@@H](CCCCN)C(=O)N[C@@H](CCCCNC(=O)CC[C@H](NC(=O)CCCCCCCCCCCCCCCCC(=O)O)C(=O)O)C(=O)O)[C@@H](C)O)[C@@H](C)CC)[C@@H](C)O)[C@@H](C)CC` [HU020M4] (HELM PEPTIDE1{H.[Aib].E.G.T.F.T.S.D.L.S.T.Y.L.D.A.L.A.A.R.D.F.I.N.W.L.I.Q.T.K.I.T.D.K.K}|PEPTIDE2{[O=C(O)CCCCCCCCCCCCCCCCC(=O)[*:2]].[gGlu]}$PEPTIDE1,PEPTIDE2,35:R3-2:R2$$$V2.0): the “half-life longer than that of semaglutide” value in data set [1] (mouse PK, relative to semaglutide) amounted to 1.5 fold. In data set [1] (setting [4]), the AUC(0-t) came out at 23.8 µg·h/mL and the Cmax turned out to be 0.81 µg/mL. Besides, in data set [1] (setting [5]), the half-life was 10.7 h. Moreover, the Tmax in data set [1] (setting [6]) was found to be 8 h.
As to `CC[C@H](C)[C@H](NC(=O)[C@H](Cc1ccccc1)NC(=O)[C@H](CC(=O)O)NC(=O)[C@H](CCCNC(=N)N)NC(=O)[C@H](C)NC(=O)[C@H](C)NC(=O)[C@H](CC(C)C)NC(=O)[C@H](C)NC(=O)[C@H](CC(=O)O)NC(=O)[C@H](CC(C)C)NC(=O)[C@H](Cc1ccc(O)cc1)NC(=O)[C@@H](NC(=O)[C@H](CO)NC(=O)[C@H](CC(C)C)NC(=O)[C@H](CC(=O)O)NC(=O)[C@H](CO)NC(=O)[C@@H](NC(=O)[C@H](Cc1ccccc1)NC(=O)[C@@H](NC(=O)CNC(=O)[C@H](CCC(=O)O)NC(=O)CNC(=O)[C@@H](N)Cc1c[nH]cn1)[C@@H](C)O)[C@@H](C)O)[C@@H](C)O)C(=O)N[C@@H](CC(N)=O)C(=O)N[C@@H](Cc1c[nH]c2ccccc12)C(=O)N[C@@H](CC(C)C)C(=O)N[C@H](C(=O)N[C@@H](CCC(N)=O)C(=O)N[C@H](C(=O)N[C@@H](CCCCN)C(=O)N[C@H](C(=O)N[C@H](C(=O)N[C@@H](CC(=O)O)C(=O)N[C@@H](CCCCN)C(=O)N[C@@H](CCCCNC(=O)CC[C@H](NC(=O)CCCCCCCCCCCCCCCCC(=O)O)C(=O)O)C(=O)O)[C@@H](C)O)[C@@H](C)CC)[C@@H](C)O)[C@@H](C)CC` [HU020M1] (HELM PEPTIDE1{H.G.E.G.T.F.T.S.D.L.S.T.Y.L.D.A.L.A.A.R.D.F.I.N.W.L.I.Q.T.K.I.T.D.K.K}|PEPTIDE2{[O=C(O)CCCCCCCCCCCCCCCCC(=O)[*:2]].[gGlu]}$PEPTIDE1,PEPTIDE2,35:R3-2:R2$$$V2.0), in data set [1] (male, C57BL/6N), the Tmax stood at 12 h and the half-life was 13.8 h.
Consider `CC[C@H](C)[C@H](NC(=O)[C@H](Cc1ccccc1)NC(=O)[C@H](CC(=O)O)NC(=O)[C@H](CCCNC(=N)N)NC(=O)[C@H](C)NC(=O)[C@H](C)NC(=O)[C@H](CC(C)C)NC(=O)[C@H](CC(N)=O)NC(=O)[C@H](CC(=O)O)NC(=O)[C@H](CC(C)C)NC(=O)[C@@H](NC(=O)[C@@H](NC(=O)[C@H](CC(N)=O)NC(=O)[C@H](CCSC)NC(=O)[C@H](CCC(=O)O)NC(=O)[C@H](CC(=O)O)NC(=O)[C@H](CO)NC(=O)[C@H](Cc1ccccc1)NC(=O)[C@H](CO)NC(=O)CNC(=O)[C@H](CC(=O)O)NC(=O)[C@H](C)NC(=O)[C@@H](N)Cc1c[nH]cn1)[C@@H](C)O)[C@@H](C)CC)C(=O)N[C@@H](CC(N)=O)C(=O)N[C@@H](Cc1c[nH]c2ccccc12)C(=O)N[C@@H](CC(C)C)C(=O)N[C@H](C(=O)N[C@@H](CCC(N)=O)C(=O)N[C@H](C(=O)N[C@@H](CCCCN)C(=O)N[C@H](C(=O)N[C@H](C(=O)N[C@@H](CC(=O)O)C(=O)O)[C@@H](C)O)[C@@H](C)CC)[C@@H](C)O)[C@@H](C)CC` [GLP-2 (Synthesized), GLP-2, reference compound], for which the “GLP-2 activity Compared to GLP-2” value in data set [2] (Example 5, relative to GLP-2) was 100%.
For `CC[C@H](C)[C@H](NC(=O)[C@H](Cc1ccccc1)NC(=O)[C@H](CC(=O)O)NC(=O)[C@H](CCCNC(=N)N)NC(=O)[C@H](C)NC(=O)[C@H](C)NC(=O)[C@H](CC(C)C)NC(=O)[C@H](C)NC(=O)[C@H](CC(=O)O)NC(=O)[C@H](CC(C)C)NC(=O)[C@H](Cc1ccc(O)cc1)NC(=O)[C@@H](NC(=O)[C@H](CO)NC(=O)[C@H](CC(C)C)NC(=O)[C@H](CC(=O)O)NC(=O)[C@H](CO)NC(=O)[C@@H](NC(=O)[C@H](Cc1ccccc1)NC(=O)[C@@H](NC(=O)CNC(=O)[C@H](CCC(=O)O)NC(=O)C(C)(C)NC(=O)[C@@H](N)Cc1c[nH]cn1)[C@@H](C)O)[C@@H](C)O)[C@@H](C)O)C(=O)N[C@@H](CC(N)=O)C(=O)N[C@@H](Cc1c[nH]c2ccccc12)C(=O)N[C@@H](CC(C)C)C(=O)N[C@H](C(=O)N[C@@H](CCC(N)=O)C(=O)N[C@H](C(=O)N[C@@H](CCCCN)C(=O)N[C@H](C(=O)N[C@H](C(=O)N[C@@H](CC(=O)O)C(=O)N[C@@H](CCCCN)C(=O)N[C@@H](CCCCNC(=O)CC[C@H](NC(=O)CCCCCCCCCCCCCCCCCCC(=O)O)C(=O)O)C(=O)O)[C@@H](C)O)[C@@H](C)CC)[C@@H](C)O)[C@@H](C)CC` [HU020M5] (HELM PEPTIDE1{H.[Aib].E.G.T.F.T.S.D.L.S.T.Y.L.D.A.L.A.A.R.D.F.I.N.W.L.I.Q.T.K.I.T.D.K.K}|PEPTIDE2{[O=C(O)CCCCCCCCCCCCCCCCCCC(=O)[*:2]].[gGlu]}$PEPTIDE1,PEPTIDE2,35:R3-2:R2$$$V2.0), in data set [1] (setting [4]), the AUC(0-t) was 20.5 µg·h/mL and the Cmax was determined as 0.661 µg/mL. The half-life in data set [1] (setting [5]) was 15.2 h. For the same molecule, the Tmax in data set [1] (setting [6]) was determined as 8 h.
Consider HGEGTFTSDLSTYLDALAARDFINWLIQTKITDKK([γGlu-C18 diacid]) [HU020M1], for which, in data set [3], the “GLP-1 activity (EC50, pM)” value was 113 pM and the “GLP-1 activity, Compared to GLP-1 (Exendin-4)” value was found to be 6.3%.
Take HGEGTFTSDLSTYLDALAAC(mPEG 3.4 kDa)DFINWLIQTKITDKK([γGlu-Palmitoyl]) [HU020M6]: in data set [3], the “GLP-1 activity (EC50, pM)” value amounted to 45.7 pM and the “GLP-1 activity, Compared to GLP-1 (Exendin-4)” value was determined as 15.5%.
